Tested on: HT-1080
Assay: Inhibition of RSL3-induced ferroptosis in human HT-1080 cells assessed as cell viability incubated for 24 hrs by CCK8 assay
Format: functional, cell-based
Details: for EC50: HT-1080, 24 h

SMILES | EC50 [nM] | inhibition
Nc1c(O)cccc1C(=O)N/N=C/c1ccc[nH]1 | 343 | 
CSc1nnc(-c2cccc(O)c2N)o1 | 99.2 | 
N#Cc1cccc(/C=N/NC(=O)c2cccc(O)c2N)c1 | 727 | 
NNC(=O)c1cccc(O)c1N | > 1000 | 
Nc1c(O)cccc1-c1nc2cc(Cl)c(Cl)cc2[nH]1 | 293 | 
Cc1ccc(/C=N/NC(=O)c2cccc(O)c2N)cc1 | 2620 | 
CCOC(=O)c1cccc(O)c1N | 127 | Dose-Dependent Effect
